Measurements published in US20220000840A1, “PHARMACEUTICAL COMPOSITION AND PREPARATION METHOD THEREFOR” (priority 2015, published 2022).

What was measured:
[1] = Solubility and chemical stability of NL-101 drug substance; type: physicochemical
[2] = Storage stability of NL-101 lyophilized preparation (room temperature, 4°C, -20°C); type: physicochemical; settings: for time stable: verified by the inventors; for Purity: lyophilized preparation per Example 2 of CN103826630A, room temperature (25 ± 2° C.)
Procedure: (§1) Northlake Biosciences LLC submitted an application WO2013010286A2 on Sep. 14, 2012, and its Chinese family patent is CN103826630A. Chinese family patent application CN103826630A uses acetic acid to dissolve NL-101 and use cyclodextrin inclusion technology to prepare lyophilized powder for injection to improve the safety of NL-101. However, the prepared NL-101 lyophilized powder for injection, such as Example 2, although claimed to be chemically stable at −20° C., 4° C. and room temperature for at least 2 weeks, in fact, the inventors of the present application have verified that the results are still far from satisfying the clinical application requirements of drugs. Although it can be stable for 2-3 weeks at −20° C. and 4° C., it is only stable for several days at room temperature. […] Especially when placed only 5 days in the condition of high temperature accelerated test at 40° C., more than 15% of NL-101 was degraded. The specific stability test results are shown in Table 1, Table 2, and Table 3 below.
According to the accelerated test results at 40° C., it is presumed that under the condition of storage, transportation and sales at room temperature (25±2° C.), it can remain stable for at least 2 years and fully meet the needs of clinical use.

[3] = Stability of NL-101 reconstituted solution (5 mg/mL) at room temperature (25±2°C); type: physicochemical; settings: CN103826630A Example 2 lyophilized preparation
From the text: In the process of investigating the NL-101 lyophilized preparation, the inventors unexpectedly discovered that reconstitution of the NL-101 lyophilized preparation with different solvents has a great influence on the stability of NL-101. For example, the lyophilized preparation prepared in Example 2 of CN103826630A was reconstituted with water for injection and physiological saline, respectively, and the purity of NL-101 in the reconstituted solution was examined at different time points.
Since the NL-101 lyophilized powder for injection prepared in Example 2 of CN103826630A contains sodium ions, it is speculated that the stability of NL-101 is increased by chlorine ions in sodium chloride. In order to confirm this, we conducted a stability investigation by reconstituting the lyophilized preparation prepared in Example 2 of CN103826630A in a potassium chloride solution having the same molar concentration as physiological saline.

[4] = Accelerated test of NL-101 lyophilized preparation at 40°C, HPLC / HPLC-MS; type: physicochemical; settings: for Purity: lyophilized preparation per Example 2 of CN103826630A, accelerated test at 40° C.
Procedure: as §1
The NL-101 lyophilized preparation for injection prepared according to the formulation 4 was taken and subjected to an accelerated test at 40° C., and the stability was tested by high performance liquid chromatography.
The NL-101 lyophilized preparation for injection prepared according to the formulations 16 and 22 were taken and subjected to an accelerated test at 40° C., and the accelerated test samples were test by high performance liquid chromatography in connection with mass spectrometry.
The above three batches of lyophilized powder for injection were taken and subjected to accelerated experiments at 40° C. The contents and total impurities were measured at 0, 1, 3, and 6 months, respectively.

[5] = lyophilized powder for injection of CN103826630A Example 2, at −20° C., 4° C. and room temperature, as claimed in CN103826630A; cited from earlier work
[6] = Stability of NL-101 intermediate/diluted solution (before lyophilization) at room temperature (25±2°C), HPLC; type: physicochemical; settings: for Purity: intermediate solution per Example 2 of CN103826630A, room temperature (25 ± 2° C.)
Procedure: as §1
The diluted solutions prepared according to the formulations 1-15, 1-1, 2-1, 3-1 and according to Example 2 of CN103826630A were left to stand for 2 hours at room temperature (25±2° C.) and the stability of each diluted solution was tested by high performance liquid chromatography.
The diluted solutions prepared according to the formulations 16-29 and according to Example 2 of CN103826630A were left to stand for 2 hours at room temperature (25±2° C.) and the stability of each diluted solution was tested by high performance liquid chromatography.
Three batches of diluted solutions were taken and placed at room temperature (25±2° C.) for different periods of time. The stability of each diluted solution was tested by high performance liquid chromatography.

[7] = intravenous injection of prior-art injection (NL-101 dissolved with acetic acid, diluted with water for injection), animal; cited from earlier work

## Cn1c(CCCCCCC(=O)NO)nc2cc(N(CCCl)CCCl)ccc21 [NL-101, 7-[5-[bis(chloroethyl)-amino]-1-methylbenzimidazol-2-yl]-N-hydroxyl-heptamide]
[1]; in acetic acid
  solubility: easily soluble
[1]; in aqueous solution
  stability: unstable
[1]; in case of strong acid, strong alkali, strong oxidant and light
  stability: easily degraded
[1]; in ethanol
  solubility: very slightly soluble
[1]; in methanol
  solubility: slightly soluble
[1]; in methanol and acetic acid solution
  stability: relatively stable
[1]; in water
  solubility: insoluble
[2]; lyophilized powder for injection of CN103826630A Example 2, at room temperature
  time stable: several days
[2]; lyophilized powder for injection of CN103826630A Example 2, at −20° C. and 4° C.
  time stable: 2-3 weeks
[2]; lyophilized powder for injection of CN103826630A Example 2, room temperature for 1 month
  degradation of NL-101: degraded severely
[2]; day 0
  Purity: 90.23%
[2]; day 5
  Purity: 85.16%
[2]; day 15
  Purity: 77.31%
[2]; day 30
  Purity: 70.55%
[3]; 0 h
  purity of NL-101 reconstituted with potassium chloride injection: 91.28%
  purity of NL-101 reconstituted with sodium chloride injection: 91.88%
  purity of NL-101 reconstituted with water for injection: 90.23%
[3]; 2 h
  purity of NL-101 reconstituted with potassium chloride injection: 86.25%
  purity of NL-101 reconstituted with sodium chloride injection: 87.05%
  purity of NL-101 reconstituted with water for injection: 80.06%
[3]; 4 h
  purity of NL-101 reconstituted with potassium chloride injection: 81.93%
  purity of NL-101 reconstituted with sodium chloride injection: 80.23%
  purity of NL-101 reconstituted with water for injection: 71.08%
[3]; 6 h
  purity of NL-101 reconstituted with potassium chloride injection: 83.56%
  purity of NL-101 reconstituted with sodium chloride injection: 78.33%
  purity of NL-101 reconstituted with water for injection: 59.36%
[4]; lyophilized powder for injection of CN103826630A Example 2, 5 days in accelerated test at 40° C.
  NL-101 degraded: more than 15%
[4]; day 0
  Purity: 90.23%
[4]; day 5
  Purity: 72.31%
[5]
  time claimed to be chemically stable: at least 2 weeks
[6]; intermediate solution before lyophilization per Example 2 of CN103826630A, in the dark at room temperature for 4 hours
  NL-101 degraded: more than 15%
[6]; 0 h
  Purity: 94.05%
[6]; 2 h
  Purity: 88.06%
[6]; 4 h
  Purity: 78.22%
[7]
  mortality rate: high
  toxicity: highly toxic
  vascular irritation: large
